# Assay results: US20210330756A1, “Acetylation of Miro1” (University of South Carolina, priority 2020, published 2021)
# Key:
# [1] = test system: growth cones of DRG neurons; experiment: Immunolabeling of growth cone cytoskeleton (Ac-α-tubulin, tyrosinated α-tubulin, F-actin); type: cell-based, rat
# Protocol: We tested for this specificity in the adult DRG neurons from above by immunoblotting. […] (A) Number of mitochondria in growth cones after exposing DRG cultures to 10 μM TubA versus vehicle (control) for 1 h is shown as average fold-change in number of mitochondria per growth cone±SEM (n=13 axons across three culture preparations; *, P≤0.05 by one-way ANOVA with Bonferroni post hoc analysis). (B) Representative EMs of Remak bundles (arrowheads) in naive Sciatic nerve and nerves after 2 h vehicle (DMSO) or TubA injection are shown. Arrows indicate mitochondria in the unmyelinated axons. Note that a Schwann cell nucleus (asterisk) is seen in the Remak bundle for DMSO image but not the other two micrographs (scale bar=3 μm). (C) Quantification of number of mitochondria per unmyelinated axon from EM images as in B is shown as average±SEM (n≥5; *****, P≤0.0001 by one-way ANOVA with Bonferroni post hoc analysis). (D-F) Quantification for indicated parameters for mitochondrial transport in sciatic nerve in vivo using tetramethylrhodamine, ethyl ester, perchlorate to visualize mitochondria is shown.
# We used a sequential immunostaining approach for simultaneous detection of tyrosinated α-tubulin (by indirect immunofluorescence), Ac-α-tubulin, and β-tubulin (by direct immunofluorescence). Phalloidin staining was also used to detect F-actin. Monoclonal mouse anti-Ac-α-tubulin IgG (6-11-B1; Sigma-Aldrich; T6793) was conjugated to Alexa Fluor 405 using the Zenon Labeling Kit per the manufacturer's instructions (Life Technologies; Z-25013). After fixation and permeabilization, coverslips were incubated with anti-Tyr-α-tubulin IgG (1:100; Sigma-Aldrich; T9028) in 1% blocking buffer overnight at 4° C. in a humidified chamber. […] Coverslips were washed twice with PBS then stained with Actin-Red 555 Ready Probe for 30 min (1:25 dilution of 200 /Uml stock; Thermo Fisher Scientific; R37112). […] Epifluorescence and confocal imaging was used for imaging of fixed samples to obtain protein localization and quantitation data. […]
# [2] = test system: rat embryonic cortical neurons; conditions: 10 μM; cited from earlier work
compound,measurement,setting,value
"CN1CCc2c(c3ccccc3n2Cc2ccc(C(=O)NO)cc2)C1 [TubA, tubastatin]",anti-Ac-α-tubulin immunoreactivity in growth cones,[1]; 10 μM vs control cultures,significant increase in anti-Ac-α-tubulin immunoreactivity in growth cones
same,tyrosinated α-tubulin in growth cones,[1]; 10 μM vs control cultures,no change in tyrosinated α-tubulin
same,growth cone signals for F-actin,[1]; TubA-treated cultures,consistently decreased
same,histone acetylation,[2],no effect on histone acetylation
same,levels of acetyl (Ac) α-tubulin,[2],increases levels of acetyl (Ac) α-tubulin
